Test results published in patent publication EP0339504A2, “Human immunodeficiency virus (HIV) env-coded peptide capable of eliciting HIV-inhibiting antibodies in mammals” (priority 1988, dated 1989).

Columns and labels:
[1] = test system: guinea pigs; test: Immunization of guinea pigs with peptide-carrier protein conjugate; anti-peptide antibodies by ELISA; assay type: in vivo, guinea pig
Method: Peptides were conjugated to either ovalbumin or keyhole limpet hemocyanin prior to immunization. For ELISA studies, human serum albumin (HSA) was used as the carrier protein. Carrier protein (2 mg/ml) was activated with 0.5% glutaraldehyde for 30 to 60 min at room temperature, then an equal volume of the peptide solution (2 mg/ml in dimethylsulfoxide) was added. The reaction took place overnight at 4°C, following which the reaction mixture was dialyzed overnight against deionized water or 0.1 M glycine, pH 7.0 in the case of human serum albumin.
Guinea pigs and rabbits were immunized following standard immunization protocols. Guinea pigs and rabbits were immunized initially with 100 to 200 µg of the peptide-carrier protein conjugate in complete Freund's adjuvant, and boosted using half the amount of peptide-carrier protein conjugate in incomplete Freund's adjuvant every two weeks thereafter. Serum samples were obtained at every other boost.
All of the peptides listed in Table 1 were conjugated to a carrier protein (either keyhole limpet hemocyanin or ovalbumin) and each peptide-carrier protein conjugate was used to immunize two guinea pigs. Guinea pigs were selected as a convenient test animal system. The resultant guinea pig antiserum samples were monitored for anti-peptide reactivity using ELISA procedures. […] A time point of six months was selected for testing the antiviral (i.e, HIV neutralizing and cell fusion-blocking) characteristics of the guinea pig antisera.
Although different levels of antibodies were produced, there was no case where only one animal from the pair produced antibodies.

[2] = test system: HIV-1 IIIB; test: HIV neutralization assay with anti-peptide sera (p24 antigen in Molt 4 culture supernatant); assay type: cell-based; settings: Molt 4 cells, day six
Method: Approximately 500 TCID₅₀ infectious units of HIV-1 IIIB or HIV-1 RF in 25 µl were mixed and incubated with serum dilutions (25 µl) for 30 min at 37°C. Molt 4 cells (4x10⁴) were added in a volume of 100 µl and incubation continued for six days at 37°C. The final dilution of the serum sample was 1 to 20. The total volume of each culture was doubled daily by addition of fresh medium (RPMI + 20% fetal calf serum). On day six, 100 µl samples were taken from the supernatant and tested for the level of viral gag-coded p24 antigen using an antigen capture assay (Du Pont, Wilmington, DE).

[3] = test system: CEM cells chronically infected with HIV-1 IIIB; test: Cell fusion assay with anti-peptide sera (giant cell count); assay type: cell-based; settings: 1:10 serum dilution, control sera 50,65
Method: Briefly, 5000 CEM cells chronically infected with HIV-1 IIIB or HIV-1 RF were mixed with 75,000 Molt 4 cells in a volume of 100 µl in a 96 well half-area plate. Final dilution of sera in the assay was 1 to 20. Twenty-four hours later giant cells were visually enumerated at a 40x magnification.

[4] = test system: antibodies from human HIV-1 seropositive serum samples; test: ELISA detection of binding of human antibodies to immobilized synthetic peptides; settings: wells blocked with diluent 1 hour before use
Method: Synthetic peptides were immobilized directly on Immulon®-II microtiter plates using glutaraldehyde. The plates were activated with 2% glutaraldehyde for 2 hrs at room temperature or 0.1% glutaraldehyde for 30 min and rinsed with deionized water. Two conditions of glutaraldehyde treatment were used routinely; the 2% glutaraldehyde was used to ensure adequate binding of the peptide to the plate and the 0.1% glutaraldehyde to avoid alteration of the binding sites. Peptide solutions of 100 µl containing 10 µg/ml in 60 mM bicarbonate buffer, pH 9.6, were added per well and incubated overnight at 4°C. The plates were washed and blocked with PBST (phosphate buffered saline + 0.05% Tween® 10) for 1 hr at 37°C and stored dry at 4°C.
This procedure was used to assure immobilization of the peptide to the microtiter plate. The peptide-HSA conjugate was immobilized on the microtiter plate well using the procedure above, except that glutaraldehyde was not included in the reaction.
Immediately before use, where indicated, the plates were blocked again with 100 µl of diluent (PBST + 5% bovine serum albumin + 20% heat inactivated normal goat serum + 0.1% sodium azide + 0.05% thimerosal) for 30 to 60 min at 37°C. […] The optical density or absorbance of the reaction was determined using a microtiter plate reader. […]

peptide 1-80: aa number 418 to 432 of HIV-1 IIIB env-coded protein (CRIKQIINMWQKVGK; Surface protein gp120; UniProt P04578 418-432, looked up, fragment)
LIMITING DILUTION ([1]; anti-peptide ELISA of guinea pig antiserum, 6 month bleed, dilution at which an absorbance of 0.1 would be obtained, one row per animal): 30
level of anti-peptide antibodies elicited (in words) ([1]; by 6 months following the first immunization): elicited very low levels of anti-peptide antibodies
LIMITING DILUTION ([1]; rows marked + : guinea pig antiserum, 2-5 month bleed, dilution giving absorbance 0.1): < 20
NEUTRALIZATION ACTIVITY (quantity of p24 present in the supernatant) ([2]; guinea pig antiserum, 6 month bleed): 800 ng/mL
NEUTRALIZATION ACTIVITY (quantity of p24 present in the supernatant) ([2]; rows marked + : guinea pig antiserum, 2-5 month bleed): >800 ng/mL
FUSION ASSAY (number of giant cells formed) ([3]; guinea pig antiserum, 6 month bleed, two counts per cell separated by a comma (no decimal)): 63,66
FUSION ASSAY (number of giant cells formed) ([3]; rows marked + : guinea pig antiserum, 2-5 month bleed, two counts separated by a comma): 54,53
HIV SEROPOSITIVE SERA Number of Peptide ELISA Positive Sera of 37 Tested ([4]; positive = ELISA absorbance greater than 0.2): 14
HIV SEROPOSITIVE SERA Positive Sera Average Absorbance ± SD ([4]; positive = absorbance greater than 0.2): 0.34 ± 0.24
